Tests used:
[1] = system: NMDAR-mediated EPSCs, hippocampal neurons; experiment: NMDAR-mediated EPSCs in cultured hippocampal neurons, pharmacological characterisation; type: cell-based, rat
Experimental: The impact of the GluN2B mutations was assessed on neuronal NMDARs by evoking network-driven NMDAR-mediated EPSCs in hippocampal neurons transfected with either wild-type or mutant GluN2B constructs. Hippocampal cultures were superfused with Krebs containing 10 μM CNQX and 20 μM bicuculline to block non-NMDA receptor and GABAA receptor-mediated currents, respectively. […] To obtain phase-locked EPSCs, a loose cell-attached patch electrode was used to serially stimulate presynaptic neurons yielding evoked EPSCs in postsynaptic neurons.
The relative contributions of GluN2A and GluN2B subunits to NMDAR-mediated currents (at 13–15 DIV) was assessed using the selective antagonists, TCN213 (30 μM, for GluN2A) and ifenprodil (3 μM, for GluN2B).
Dissected hippocampi were dissociated from E18 Sprague Dawley rat embryos using procedures and protocols that have been approved by the UK Home Office. They were dissociated into single cells using 0.1% w/v trypsin and serially triturated with flame-polished Pasteur pipettes. […] Neurons were transfected after 10 days in vitro (DIV) with either cDNAs for the GluN2B WT or mutants together with DsRed using Effectene (Qiagen) and recorded at 13–15 DIV.
(§1) Cells were voltage clamped at −60 mV.
NMDAR-mediated EPSCs were evoked by direct stimulation of single neighbouring neurons using a loose cell-attached patch electrode filled with Krebs and containing a bipolar stimulating electrode. […] For the pharmacological characterisation of NMDAR-mediated EPSCs, the selective antagonists ifenprodil (+)-hemitartrate (Santacruz biotechnology) and TCN213 (Tocris) were used.
EPSCs were analysed offline using WinWCP (Strathclyde Electrophysiology Software, UK). Peak EPSC amplitude, the area of the EPSC (charge transfer) and EPSC decays were measured. The decay time constants (τ) were determined by fitting the EPSC decays with a double exponential function. The weighted time constant (τw) was calculated using the following equation, where A indicates the relative area of each time constant.3 τw=((A1.τ1)+(A2.τ2))∕A1+A2.

GluN1–GluN2B^V618G = GluN1–GluN2B^V618G (Homo sapiens, UniProt Q05586+Q13224, V618G); experiment: Ion permeability experiments in Mg2+ or Ca2+ solution, HEK293 cells; type: cell-based; design: expressed in transfected cells; host or cells: HEK293; conditions: −60 mV
Excerpt: (§2) To assess Mg^2+ permeability the external solution was altered such that Mg^2+ was the only current-carrying cation (Mg^2+ solution). […] The same result was apparent for GluN1–GluN2B^N615I (Fig. 4a; Table 1). […] To assess whether the channel mutants affected Ca^2+ permeation, we modified the external solution to make Ca^2+ the only current-carrying cation[24] (Ca^2+ solution). […] This implied a significant reduction in Ca^2+ permeation for GluN2B^N615I.
as §1

GluN1–GluN2B^N615I = GluN1–GluN2B^N615I (Homo sapiens, UniProt Q05586+Q13224, N615I); experiment: as above; type: cell-based; design: expressed in transfected cells; host or cells: HEK293; conditions: −60 mV
Excerpt: as §2, §1

GluN1–GluN2B^WT = GluN1–GluN2B^WT (Homo sapiens, UniProt Q05586+Q13224); experiment: as above; type: cell-based; design: expressed in transfected cells; host or cells: HEK293; conditions: −60 mV
Excerpt: as §2, §1

[2] = Ca^2+ solution (100 mM), 10 μM glutamate and 10 μM glycine
[3] = current in Ca^2+ solution as % of current in Krebs
[4] = 3 μM ifenprodil, 13–15 DIV untransfected neurons

Chain of GluN1–GluN2B^N615I (Q13224 27-1484 N615I, other chains not shown): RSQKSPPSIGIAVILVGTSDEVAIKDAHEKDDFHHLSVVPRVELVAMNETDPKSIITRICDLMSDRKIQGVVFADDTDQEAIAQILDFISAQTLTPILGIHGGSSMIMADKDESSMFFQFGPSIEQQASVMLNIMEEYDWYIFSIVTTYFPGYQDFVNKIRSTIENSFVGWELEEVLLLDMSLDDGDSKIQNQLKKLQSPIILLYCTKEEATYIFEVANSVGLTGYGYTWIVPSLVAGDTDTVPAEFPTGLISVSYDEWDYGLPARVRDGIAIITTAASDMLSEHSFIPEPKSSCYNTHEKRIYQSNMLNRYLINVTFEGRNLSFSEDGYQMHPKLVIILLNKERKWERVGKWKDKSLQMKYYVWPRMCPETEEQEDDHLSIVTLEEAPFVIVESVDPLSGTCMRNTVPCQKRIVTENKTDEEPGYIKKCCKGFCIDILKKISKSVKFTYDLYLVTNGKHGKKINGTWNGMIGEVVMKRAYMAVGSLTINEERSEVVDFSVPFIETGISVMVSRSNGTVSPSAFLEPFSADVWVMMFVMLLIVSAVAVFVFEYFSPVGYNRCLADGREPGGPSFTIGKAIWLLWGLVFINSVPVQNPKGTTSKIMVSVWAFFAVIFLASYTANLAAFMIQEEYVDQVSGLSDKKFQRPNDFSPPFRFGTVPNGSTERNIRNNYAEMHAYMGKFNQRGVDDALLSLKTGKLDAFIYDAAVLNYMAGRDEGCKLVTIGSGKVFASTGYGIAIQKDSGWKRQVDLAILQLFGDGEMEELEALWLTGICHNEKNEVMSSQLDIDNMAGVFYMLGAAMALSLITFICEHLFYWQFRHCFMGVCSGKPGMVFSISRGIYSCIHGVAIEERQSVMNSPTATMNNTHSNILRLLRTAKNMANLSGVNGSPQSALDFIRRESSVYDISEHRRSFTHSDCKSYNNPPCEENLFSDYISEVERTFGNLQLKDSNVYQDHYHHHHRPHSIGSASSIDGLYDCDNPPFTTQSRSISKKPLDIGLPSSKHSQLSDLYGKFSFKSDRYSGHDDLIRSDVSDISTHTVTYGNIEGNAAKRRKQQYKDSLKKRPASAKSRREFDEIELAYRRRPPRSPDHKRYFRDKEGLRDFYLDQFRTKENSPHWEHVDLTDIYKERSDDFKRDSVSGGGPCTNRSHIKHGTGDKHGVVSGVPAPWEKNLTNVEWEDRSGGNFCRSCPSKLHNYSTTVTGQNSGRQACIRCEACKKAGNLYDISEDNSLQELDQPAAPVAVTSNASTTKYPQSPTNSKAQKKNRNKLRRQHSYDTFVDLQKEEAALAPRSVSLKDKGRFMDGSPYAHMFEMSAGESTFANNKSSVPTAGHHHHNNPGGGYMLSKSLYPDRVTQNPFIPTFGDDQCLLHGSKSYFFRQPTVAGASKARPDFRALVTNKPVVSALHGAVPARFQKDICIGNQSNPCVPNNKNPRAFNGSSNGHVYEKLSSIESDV
Chain of GluN1–GluN2B^V618G (Q13224 27-1484 V618G, other chains not shown): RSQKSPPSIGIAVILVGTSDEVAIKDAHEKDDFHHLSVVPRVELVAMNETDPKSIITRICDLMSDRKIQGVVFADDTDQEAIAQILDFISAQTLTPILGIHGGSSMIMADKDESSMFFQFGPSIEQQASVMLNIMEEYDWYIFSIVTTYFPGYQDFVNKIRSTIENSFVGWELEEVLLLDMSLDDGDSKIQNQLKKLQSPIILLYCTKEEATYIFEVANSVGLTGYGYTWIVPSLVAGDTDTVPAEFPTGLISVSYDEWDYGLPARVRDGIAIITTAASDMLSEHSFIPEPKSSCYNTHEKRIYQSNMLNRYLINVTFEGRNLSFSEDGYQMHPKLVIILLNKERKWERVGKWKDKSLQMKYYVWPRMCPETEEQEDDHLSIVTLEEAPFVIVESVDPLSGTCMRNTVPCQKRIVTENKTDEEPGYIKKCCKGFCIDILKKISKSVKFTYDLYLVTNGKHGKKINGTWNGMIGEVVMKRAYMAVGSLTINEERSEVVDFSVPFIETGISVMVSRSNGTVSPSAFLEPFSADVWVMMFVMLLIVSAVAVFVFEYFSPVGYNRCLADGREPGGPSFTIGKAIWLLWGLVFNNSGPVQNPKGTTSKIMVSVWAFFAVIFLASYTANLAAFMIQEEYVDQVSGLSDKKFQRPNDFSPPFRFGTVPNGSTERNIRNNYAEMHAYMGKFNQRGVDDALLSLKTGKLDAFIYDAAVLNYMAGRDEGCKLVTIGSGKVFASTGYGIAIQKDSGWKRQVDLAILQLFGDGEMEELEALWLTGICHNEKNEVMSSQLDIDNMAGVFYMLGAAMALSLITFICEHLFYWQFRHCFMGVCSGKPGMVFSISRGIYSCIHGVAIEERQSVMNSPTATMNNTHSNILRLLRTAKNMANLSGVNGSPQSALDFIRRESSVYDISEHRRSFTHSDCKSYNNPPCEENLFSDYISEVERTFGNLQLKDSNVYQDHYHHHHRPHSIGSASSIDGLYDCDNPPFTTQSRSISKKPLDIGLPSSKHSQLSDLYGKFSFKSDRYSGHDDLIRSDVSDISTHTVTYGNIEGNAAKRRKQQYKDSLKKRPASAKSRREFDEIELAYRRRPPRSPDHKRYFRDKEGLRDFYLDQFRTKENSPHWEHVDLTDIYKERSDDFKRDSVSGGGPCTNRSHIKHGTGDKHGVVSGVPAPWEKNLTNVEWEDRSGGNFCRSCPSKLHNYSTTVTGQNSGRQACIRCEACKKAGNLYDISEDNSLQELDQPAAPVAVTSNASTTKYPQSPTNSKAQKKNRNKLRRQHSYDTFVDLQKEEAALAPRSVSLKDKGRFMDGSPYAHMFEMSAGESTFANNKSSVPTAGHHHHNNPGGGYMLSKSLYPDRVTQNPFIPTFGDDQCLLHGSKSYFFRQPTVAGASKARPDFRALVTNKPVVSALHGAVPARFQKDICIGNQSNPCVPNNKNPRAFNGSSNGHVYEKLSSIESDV
Chain of GluN1–GluN2B^WT (Q13224 27-1484, other chains not shown): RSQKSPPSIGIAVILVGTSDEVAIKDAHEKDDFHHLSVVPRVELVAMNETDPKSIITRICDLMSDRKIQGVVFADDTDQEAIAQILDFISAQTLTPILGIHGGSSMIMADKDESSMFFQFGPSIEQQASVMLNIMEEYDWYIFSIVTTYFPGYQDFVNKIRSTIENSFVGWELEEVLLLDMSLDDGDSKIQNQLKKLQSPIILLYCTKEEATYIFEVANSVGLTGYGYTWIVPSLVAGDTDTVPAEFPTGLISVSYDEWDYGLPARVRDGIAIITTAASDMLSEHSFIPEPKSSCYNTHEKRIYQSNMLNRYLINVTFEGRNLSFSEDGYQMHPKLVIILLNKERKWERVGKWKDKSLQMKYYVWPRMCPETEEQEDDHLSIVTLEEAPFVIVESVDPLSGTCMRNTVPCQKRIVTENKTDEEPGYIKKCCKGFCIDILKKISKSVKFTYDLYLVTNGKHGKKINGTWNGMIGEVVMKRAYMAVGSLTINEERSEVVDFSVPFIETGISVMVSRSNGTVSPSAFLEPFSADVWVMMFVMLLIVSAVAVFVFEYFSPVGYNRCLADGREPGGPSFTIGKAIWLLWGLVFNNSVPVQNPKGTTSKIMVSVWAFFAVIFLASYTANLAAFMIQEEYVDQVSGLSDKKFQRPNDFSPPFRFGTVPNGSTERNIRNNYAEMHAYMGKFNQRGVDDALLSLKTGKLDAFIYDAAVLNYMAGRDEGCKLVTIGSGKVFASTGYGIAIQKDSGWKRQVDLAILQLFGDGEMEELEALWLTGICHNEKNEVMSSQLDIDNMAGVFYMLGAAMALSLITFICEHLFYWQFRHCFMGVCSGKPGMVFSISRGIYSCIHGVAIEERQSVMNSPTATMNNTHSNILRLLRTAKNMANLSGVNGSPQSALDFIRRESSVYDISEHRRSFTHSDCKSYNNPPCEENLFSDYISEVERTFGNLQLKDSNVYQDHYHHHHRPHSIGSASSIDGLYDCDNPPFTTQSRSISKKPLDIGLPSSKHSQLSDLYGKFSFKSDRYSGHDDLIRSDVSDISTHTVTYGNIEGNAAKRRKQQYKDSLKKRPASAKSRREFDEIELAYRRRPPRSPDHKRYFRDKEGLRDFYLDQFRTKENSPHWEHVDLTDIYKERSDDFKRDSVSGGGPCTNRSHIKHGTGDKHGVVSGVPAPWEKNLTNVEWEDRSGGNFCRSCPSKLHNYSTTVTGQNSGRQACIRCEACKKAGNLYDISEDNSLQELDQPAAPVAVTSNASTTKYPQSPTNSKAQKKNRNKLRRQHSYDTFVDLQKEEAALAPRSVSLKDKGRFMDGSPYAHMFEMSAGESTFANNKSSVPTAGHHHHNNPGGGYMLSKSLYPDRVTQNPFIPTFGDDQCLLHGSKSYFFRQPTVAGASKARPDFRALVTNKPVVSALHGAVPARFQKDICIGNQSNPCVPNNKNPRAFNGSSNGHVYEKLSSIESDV

N[C@@H](CCCP(=O)(O)O)C(=O)O [APV]
Effect on spontaneous/evoked EPSCs ([1]; 20 μM APV, 0 Mg^2+, 10 μM CNQX, 20 μM bicuculline): blocked

[Ca+2] [Ca^2+]
ICa current density (GluN1–GluN2B^V618G; [2]): −5.00 ± 0.64 pA/pF
ICa/IKrebs (GluN1–GluN2B^V618G; [3]): 46.28 ± 3.18%
ICa current density (GluN1–GluN2B^N615I; [2]): −0.47 ± 0.10 pA/pF
ICa/IKrebs (GluN1–GluN2B^N615I; [3]): 11.07 ± 1.04%
ICa current density (GluN1–GluN2B^WT; [2]): −7.08 ± 2.12 pA/pF
ICa/IKrebs (GluN1–GluN2B^WT; [3]): 52.83 ± 1.07%

CC(C(O)c1ccc(O)cc1)N1CCC(Cc2ccccc2)CC1 (stereo not drawn) [Ifenprodil, ifenprodil (+)-hemitartrate]
Decrease of EPSC decay time [1, 4]: 30%
Effect on peak EPSC amplitude [1, 4]: reduced the peak EPSC amplitude

Source: article PMC5840332, “Disease-associated missense mutations in GluN2B subunit alter NMDA receptor ligand binding and ion channel properties” (Nature Communications, 2018)
